# Laboratory results as given in article PMC8979514 (Journal of Enzyme Inhibition and Medicinal Chemistry, 2022).
# Where two headings read alike, the source gives them in different places.
# Legend:
# in vitro [1] = format: cell-based, human; conditions: human, 24 h incubation, MTT, mean ± SD, read-out: Cells viability of SH-SY5Y cell line (% of control)
# Protocol: (§1) Human neuroblastoma SH-SY5Y and human liver hepatocellular HepG2 cell lines were purchased from the American Type Culture Collections (ATCC). SH-SY5Y cells were cultured in a Dulbecco’s Modified Eagle Medium (DMEM) supplemented with Ham F12 medium (ratio 1:1), whereas HepG2 cells in Eagle’s Minimum Essential Medium (EMEM). Additionally, all culture medium was supplemented with 10% foetal bovine serum (FBS), streptomycin (100 µg/mL) and penicillin (100 U/mL). The cells were seeded into flasks containing supplemented medium and maintained in a humidified atmosphere of 5% CO2 and 95% air at 37 °C. The cell viability assay was performed in confluence of the cells in serum free medium (without FBS) was 80–90%.
# (§2) […]. SH-SY5Y cells and HepG2 cells were seeded on 96-well plate with a density of 27–29 × 10^3 cells/well and 12–14 × 10^3/well respectively. […]. The DMSO concentration of every well in final dilutions was equal to or less than 0.1%. After incubation with compounds, MTT was added and 2 h later, the absorbance was measured at 492 nm. The result was expressed as the percentage of control cells (cultured in serum-free medium containing 0.1% of DMSO) which was set to 100%. The MTT test was performed in three independent replications. Data analysis was performed by using GraphPad Prism 5.0 Software.
# SH-SY5Y a standard cell line used for determining neurocytotoxic effect of potential drug. Moreover it is well-established in vitro model of neurodegenerative disorders. […].
# [2] = biological target: T1, Acetylcholinesterase (eeAChE, E.C. 3.1.1.7) (Electrophorus electricus, UniProt O42275); experiment: biochemical; format: biochemical, electric eel; conditions: for IC50: eeAChE; for Selectivity IC50(eeAChE)/ IC50(BChE): ratio of IC50 values
# T1 construct: purchased Sigma Aldrich
# T1 sequence (O42275 24-633): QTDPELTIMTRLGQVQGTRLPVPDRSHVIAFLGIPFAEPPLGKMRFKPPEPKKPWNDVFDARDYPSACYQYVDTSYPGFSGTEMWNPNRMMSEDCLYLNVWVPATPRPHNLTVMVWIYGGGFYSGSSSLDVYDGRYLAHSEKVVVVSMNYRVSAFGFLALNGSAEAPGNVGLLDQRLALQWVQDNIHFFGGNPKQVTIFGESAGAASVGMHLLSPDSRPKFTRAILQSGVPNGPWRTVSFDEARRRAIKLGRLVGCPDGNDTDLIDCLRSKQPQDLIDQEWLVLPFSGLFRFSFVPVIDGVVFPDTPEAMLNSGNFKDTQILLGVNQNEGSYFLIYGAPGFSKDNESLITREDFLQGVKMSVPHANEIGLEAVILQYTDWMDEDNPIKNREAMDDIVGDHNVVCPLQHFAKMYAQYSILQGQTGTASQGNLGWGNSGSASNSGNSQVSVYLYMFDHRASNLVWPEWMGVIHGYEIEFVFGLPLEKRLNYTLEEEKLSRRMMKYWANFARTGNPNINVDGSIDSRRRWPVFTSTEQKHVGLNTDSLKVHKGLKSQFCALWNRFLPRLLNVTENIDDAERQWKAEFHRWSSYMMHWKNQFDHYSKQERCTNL
# Protocol: (§3) [33] Inhibitory activity was tested at room temperature on 96-well plate using Ellman’s method. Lyophilised powders of AChE and BChE were dissolved in phosphate buffer (pH 7.5, 0.1 M) with 1% BSA.
# (§4) Each well was filled to a total volume of 330 µL. The content inculded 285 µL of phosphate buffer, 5 µL 2 units/mL of eeAChE/BChE, 10 µL 0.01 M of DTNB, 10 µl of tested compound (for the control wells 10 µL of the phosphate buffer instead of tested compound) and 20 µL (7.5 mM) ATCh/BTCh. The hydrolysis of ATCh/BTCh was initiated by adding it to the well directly before the measurement. The absorbance was recorded at 1 min intervals for 8 min in total. The percent of inhibition was calculated by nonlinear regression analysis of the response–concentration (log) curve as a percentage of the reaction rate of the tested compounds over the control. Data analysis was performed by using GraphPad Prism 5.0 Software to give the IC50 values. The experiment was carried out in triplicate.
# in vitro [3] = format: cell-based, human; conditions: human; MTT, 24 h incubation; read-out: Cytotoxicity on HepG2 cells IC50
# Protocol: as §1, §2
# . HepG2 is a commonly used in vitro model for the investigation of hepatocytotoxic effect of xenobiotics [40]^,[41]. In our study, we evaluated the toxicity of our new analogs against […]. […]
# [4] = biological target: T2, butyrylcholinesterase (BChE, E.C. 3.1.1.8) (Equus caballus, UniProt P81908); experiment: biochemical; parameters: species or system equine serum; conditions: for IC50: BChE from equine serum
# T2 construct: purchased Sigma Aldrich
# T2 sequence (P81908 whole entry): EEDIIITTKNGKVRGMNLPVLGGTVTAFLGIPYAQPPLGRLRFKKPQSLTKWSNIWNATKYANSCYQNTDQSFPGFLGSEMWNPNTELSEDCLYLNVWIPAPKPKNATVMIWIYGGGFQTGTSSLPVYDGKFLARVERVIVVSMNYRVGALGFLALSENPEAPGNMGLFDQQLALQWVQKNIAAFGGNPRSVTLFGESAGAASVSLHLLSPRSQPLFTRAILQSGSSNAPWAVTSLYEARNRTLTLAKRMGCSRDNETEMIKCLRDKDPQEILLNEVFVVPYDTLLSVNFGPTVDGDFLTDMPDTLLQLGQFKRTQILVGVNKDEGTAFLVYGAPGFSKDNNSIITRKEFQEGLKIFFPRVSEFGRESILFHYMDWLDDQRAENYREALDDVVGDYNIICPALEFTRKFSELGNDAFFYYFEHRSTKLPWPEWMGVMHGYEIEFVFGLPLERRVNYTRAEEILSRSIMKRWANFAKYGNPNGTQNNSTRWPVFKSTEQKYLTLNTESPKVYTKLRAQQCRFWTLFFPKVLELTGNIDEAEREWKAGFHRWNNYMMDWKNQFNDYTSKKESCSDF
# Protocol: as §3, §4
# [5] = IC50 AChE, Ellman's method, phosphate buffer pH 7.5, room temperature
# [6] = from IC50 values, versus tacrine
# [7] = pIC50 ± S.E.M. AChE, value in brackets under the IC50
# [8] = IC50 BChE, Ellman's method, phosphate buffer pH 7.5, room temperature
# [9] = pIC50 ± S.E.M. BChE, value in brackets under the IC50
# [10] = Ellman's method, phosphate buffer pH 7.5, room temperature, read-out: IC50 AChE
# [11] = value in brackets under the IC50, read-out: pIC50 ± S.E.M. AChE (converted)
# [12] = Ellman's method, phosphate buffer pH 7.5, room temperature, read-out: IC50 BChE
# [13] = value in brackets under the IC50, read-out: pIC50 ± S.E.M. BChE (converted)
Compound,"viability at 24 h, 12.5 µM (in vitro [1])","viability at 24 h, 50 µM (in vitro [1])","viability at 24 h, 100 µM (in vitro [1])","IC50 [2, 5]","fold more potent than tacrine against AChE [2, 6]","IC50 [2, 7]",Selectivity IC50(eeAChE)/ IC50(BChE) [2],IC50 at 24 h (in vitro [3]),"IC50 [4, 8]","IC50 [4, 9]","fold more potent than tacrine against BChE [4, 6]",viability at 12.5 µM (in vitro [1]),viability at 50 µM (in vitro [1]),viability at 100 µM (in vitro [1]),"IC50 [2, 10]","IC50 [2, 11]",IC50 (in vitro [3]),"IC50 [4, 12]","IC50 [4, 13]"
"CCOP(=O)(NCCCCCCCCNc1c2c(nc3ccccc13)CCCC2)OCC [Compound 8, Diethyl(8-((1,2,3,4-tetrahydroacridin-9-yl)amino)octyl)phosphoramidate]",76.7 ± 5.8%,51.6 ± 5.4%,52.2 ± 1%,6.11 nM,6 fold,6.11 nM,0.48,23700 nM,12.9 nM,12.9 nM,,,,,,,,,
"CCCCOP(=O)(NCCCCCCCCNc1c2c(nc3ccccc13)CCCC2)OCCCC [Compound 9, Dibutyl(8-((1,2,3,4-tetrahydroacridin-9-yl)amino)octyl)phosphoramidate]",77.5 ± 13.5%,55.7 ± 11.5%,54.6 ± 8.4%,8.18 nM,,8.18 nM,0.2,43300 nM,41.5 nM,41.5 nM,,,,,,,,,
"O=P(NCCCCCCCCCCCCNc1c2c(nc3ccccc13)CCCC2)(Oc1ccccc1)Oc1ccccc1 [Compound 13, Diphenyl(12-((1,2,3,4-tetrahydroacridin-9-yl)amino)dodecyl)phosphoramidate]",40.4 ± 7.6%,38.4 ± 7.6%,38 ± 3.8%,9.96 nM,,9.95 nM,5.06,,1.97 nM,1.97 nM,12 fold,,,,,,,,
"O=P(NCCCCCCCCNc1c2c(nc3ccccc13)CCCC2)(Oc1ccccc1)Oc1ccccc1 [Compound 10, Diphenyl(8-((1,2,3,4-tetrahydroacridin-9-yl)amino)octyl)phosphoramidate]",,,,,,,0.24,,,,,80.1 ± 16.8%,63.7 ± 5.7%,48.1 ± 8.1%,44.2 nM,44.3 nM,7150 nM,188 nM,188 nM
"CCCCOP(=O)(OCCCC)OCCCNc1c2c(nc3ccccc13)CCCC2 [Compound 17, Dibutyl(3-((1,2,3,4-tetrahydroacridin-9-yl)amino)propyl)phosphate]",94.4 ± 5.1%,67.7 ± 14.7%,63.2 ± 12.2%,110 nM,,110 nM,3.78,72300 nM,29.1 nM,29.1 nM,,,,,,,,,
"CCCCOP(=O)(OCCCC)OCCNCCNc1c2c(nc3ccccc13)CCCC2 [Compound 20, Dibutyl(2-((2-((1,2,3,4-tetrahydroacridin-9-yl)amino)ethyl)amino)ethyl)phosphate]",78.9 ± 8.6%,79.7 ± 1.1%,68.6 ± 14.5%,81.6 nM,,81.5 nM,0.44,134000 nM,186 nM,,,,,,,,,,
"CCOP(=O)(NCCCCCCCCCCCCNc1c2c(nc3ccccc13)CCCC2)OCC [Compound 11, Diethyl(12-((1,2,3,4-tetrahydroacridin-9-yl)amino)dodecyl)phosphoramidate]",,,,,,,0.51,,,,,35.4 ± 4.6%,35.5 ± 4.1%,31.1 ± 6.4%,33.3 nM,33.3 nM,50 nM,65.5 nM,65.5 nM
"O=P(OCCNCCNc1c2c(nc3ccccc13)CCCC2)(Oc1ccccc1)Oc1ccccc1 [Compound 21, Diphenyl(2-((2-((1,2,3,4-tetrahydroacridin-9-yl)amino)ethyl)amino)ethyl)phosphate]",52.3 ± 5%,42.7 ± 6.4%,30.7 ± 1.5%,501 nM,,501 nM,12.22,,41 nM,41 nM,,,,,,,,,
"CCCCOP(=O)(NCCCCCCCCCCCCNc1c2c(nc3ccccc13)CCCC2)OCCCC [Compound 12, Dibutyl(12-((1,2,3,4-tetrahydroacridin-9-yl)amino)dodecyl)phosphoramidate]",69.3 ± 3.7%,52.1 ± 3.1%,53.5 ± 5.8%,16.3 nM,,16.3 nM,0.27,20800 nM,61.2 nM,61.2 nM,,,,,,,,,
"O=P(OCCCNc1c2c(nc3ccccc13)CCCC2)(Oc1ccccc1)Oc1ccccc1 [Compound 18, Diphenyl(3-((1,2,3,4-tetrahydroacridin-9-yl)amino)propyl)phosphate]",79.5 ± 7.4%,71.2 ± 20.5%,59 ± 20.3%,58.6 nM,,58.6 nM,1.55,53800 nM,37.7 nM,,,,,,,,,,
"O=P(NCCCCCCNc1c2c(nc3ccccc13)CCCC2)(Oc1ccccc1)Oc1ccccc1 [Compound 7, Diphenyl(6-((1,2,3,4-tetrahydroacridin-9-yl)amino)hexyl)phosphoramidate]",,,,,,,3.04,,,,,47.4 ± 1.2%,41.3 ± 1.5%,30.1 ± 5%,125 nM,125 nM,14600 nM,41.1 nM,41.1 nM
"CCOP(=O)(NCCCCCCNc1c2c(nc3ccccc13)CCCC2)OCC [Compound 6, Diethyl(6-((1,2,3,4-tetrahydroacridin-9-yl)amino)hexyl)phosphoramidate]",74.3 ± 4.9%,71.7 ± 7.2%,67.5 ± 9%,32.6 nM,,32.6 nM,4.82,140000 nM,6.75 nM,6.76 nM,,,,,,,,,
